Data taken from patent publication US9856279B2 (AGIOS PHARMACEUTICALS, INC, priority 2011, dated 2018).

Molecular target: IDH1 R132H (Homo sapiens, UniProt O75874, R132H)
Test: Assay for IDH1 R132H inhibitors (NADPH/aKG, resazurin detection)
Assay type: biochemical
Conditions: Table 3; enzyme assay, 50 minutes at room temperature; read-out: IC50 (IDH1 R132H Inhibition)
Outline: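 Read-out is resorufin fluorescence (Ex544/Em590) 5 min after adding a 30 μM resazurin detection mix. Before that, mutant enzyme (0.2 μg/ml in its mix) ran 50 min at room temperature with compound, 8 uM NADPH and 2 mM aKG (mix levels) in Tris pH 7.5 with NaCl, MgCl2, BSA.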

Sequence of IDH1 R132H (O75874 whole entry R132H): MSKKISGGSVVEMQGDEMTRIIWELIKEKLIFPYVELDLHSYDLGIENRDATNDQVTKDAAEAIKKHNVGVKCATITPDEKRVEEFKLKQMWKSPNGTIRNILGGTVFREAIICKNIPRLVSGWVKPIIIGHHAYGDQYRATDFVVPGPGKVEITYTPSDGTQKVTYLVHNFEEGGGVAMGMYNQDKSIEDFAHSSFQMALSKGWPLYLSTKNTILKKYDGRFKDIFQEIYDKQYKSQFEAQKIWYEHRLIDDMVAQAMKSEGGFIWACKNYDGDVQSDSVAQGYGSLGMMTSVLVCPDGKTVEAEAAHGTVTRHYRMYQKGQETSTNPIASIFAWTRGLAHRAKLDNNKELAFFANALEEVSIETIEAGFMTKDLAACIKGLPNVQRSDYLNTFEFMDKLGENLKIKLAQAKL

SMILES	IC50 [nM]
CC(C)c1cc(-c2cccc(F)c2)c(C#N)c(N2CC(C)N(C(=O)c3ccco3)C(C)C2)n1 (centres unmarked) [Compound 136, 4-(3-fluorophenyl)-2-(4-(furan-2-carbonyl)-3,5-dimethylpiperazin-1-yl)-6-isopropylnicotinonitrile]	5000 to 15000
CC(C)c1nc(N2CCN(C(=O)c3ccco3)[C@H](C)C2)c(C#N)cc1-c1ccc(C(F)(F)F)cc1 [Compound 185, (R)-2-(4-(furan-2-carbonyl)-3-methylpiperazin-1-yl)-6-isopropyl-5-(4-(trifluoromethyl)phenyl) nicotinonitrile]	1000 to 5000
CCc1ccc(-c2cc(C#N)c(N3CCN(C(=O)CCOC)[C@H](C)C3)nc2C(C)C)cc1 [Compound 216, 5-(4-ethylphenyl)-6-isopropyl-2-(4-(3-methoxypropanoyl)-3-methylpiperazin-1-yl)nicotinonitrile]	1000 to 5000
CC(C)c1nc(N2CCN(C(=O)c3ccoc3)[C@H](C)C2)c(C#N)cc1-c1ccc(C(F)(F)F)cc1 [Compound 187, (R)-2-(4-(furan-3-carbonyl)-3-methylpiperazin-1-yl)-6-isopropyl-5-(4-(trifluoromethyl)phenyl)nicotinonitrile]	≤ 1000
CC(C)c1cc(-c2ccccc2)c(C#N)c(N2CCN(C(=O)c3ccco3)C(C)C2)n1 (centres unmarked) [Compound 107, 2-(4-(furan-2-carbonyl)-3-methylpiperazin-1-yl)-6-isopropyl-4-phenylnicotinonitrile]	1000 to 5000
CC(C)c1cc(-c2cccc(F)c2)c(C#N)c(N2CCN(C(=O)c3c[nH]c4ccccc34)CC2)n1 [Compound 116, 2-(4-(1H-indole-3-carbonyl)piperazin-1-yl)-4-(3-fluorophenyl)-6-isopropylnicotinonitrile]	5000 to 15000
Cc1cccc(-c2cc(C#N)c(N3CCN(C(=O)Cc4cccs4)[C@H](C)C3)nc2C(C)C)c1 [Compound 192, (R)-6-isopropyl-2-(3-methyl-4-(2-(thiophen-2-yl)acetyl)piperazin-1-yl)-5-m-tolylnicotinonitrile]	1000 to 5000
CC(C)c1cc(-c2ccccc2)c(C#N)c(N2CCN(C(=O)Cc3ccccc3)[C@H](C)C2)n1 [Compound 131, (R)-6-isopropyl-2-(3-methyl-4-(2-phenylacetyl)piperazin-1-yl)-4-phenylnicotinonitrile]	1000 to 5000
CC(C)c1cc(-c2ccccc2)c(C#N)c(N2CCN(C(=O)c3ccoc3)C(C)C2)n1 (centres unmarked) [Compound 110, 2-(4-(furan-3-carbonyl)-3-methylpiperazin-1-yl)-6-isopropyl-4-phenylnicotinonitrile]	1000 to 5000
CC(C)c1nc(N2CCN(C(=O)c3ccoc3)[C@H](C(C)C)C2)c(C#N)cc1-c1ccccc1 [Compound 170, (R)-2-(4-(furan-3-carbonyl)-3-isopropylpiperazin-1-yl)-6-isopropyl-5-phenylnicotinonitrile]	1000 to 5000
COCCC(=O)N1CCN(c2nc(C(C)C)c(-c3ccccc3OC)cc2C#N)C[C@H]1C [Compound 183, (R)-6-isopropyl-5-(2-methoxyphenyl)-2-(4-(3-methoxypropanoyl)-3-methylpiperazin-1-yl)nicotinonitrile]	1000 to 5000
CCOc1ccccc1-c1cc(C(C)C)nc(N2CCN(C(=O)c3ccoc3)[C@H](C)C2)c1C#N [Compound 163, (R)-4-(2-ethoxyphenyl)-2-(4-(furan-3-carbonyl)-3-methylpiperazin-1-yl)-6-isopropylnicotinonitrile]	1000 to 5000
COCCC(=O)N1CCN(c2nc(C(C)C)c(-c3ccc(OC)cc3)cc2C#N)C[C@H]1C [Compound 214, (R)-6-isopropyl-5-(4-methoxyphenyl)-2-(4-(3-methoxypropanoyl)-3-methylpiperazin-1-yl)nicotinonitrile]	1000 to 5000

Now from value to compound:

IC50 [nM]	SMILES
≤ 1000	COCCC(=O)N1CCN(c2nc(C3CC3)c(-c3ccc(C)c(F)c3)c(C)c2C#N)C[C@H]1C [Compound 258, (R)-6-cyclopropyl-5-(3-fluoro-4-methylphenyl)-2-(4-(3-methoxypropanoyl)-3-methylpiperazin-1-yl)-4-methylnicotinonitrile]
≤ 1000	COCCC(=O)N1CCN(c2nc(C3CC3)c(-c3cccc(OC)c3)c(C)c2C#N)C[C@H]1C [Compound 251, (R)-6-cyclopropyl-5-(3-methoxyphenyl)-2-(4-(3-methoxypropanoyl)-3-methylpiperazin-1-yl)-4-methylnicotinonitrile]
1000 to 5000	COCCC(=O)N1CCN(c2nc(C(C)C)c(-c3ccncc3)cc2C#N)C[C@H]1C [Compound 213, (R)-2-isopropyl-6-(4-(3-methoxypropanoyl)-3-methylpiperazin-1-yl)-3,4′-bipyridine-5-carbonitrile]
≤ 1000	COCCC(=O)N1CCN(c2nc(C3CC3)c(-c3ccc4[nH]ccc4c3)cc2C#N)C[C@H]1C [Compound 253, (R)-6-cyclopropyl-5-(1H-indol-5-yl)-2-(4-(3-methoxypropanoyl)-3-methylpiperazin-1-yl)nicotinonitrile]
1000 to 5000	Cc1ccc(-c2cc(C#N)c(N3CCN(C(=O)c4ccco4)[C@H](C)C3)nc2C(C)C)cc1 [Compound 180, (R)-2-(4-(furan-2-carbonyl)-3-methylpiperazin-1-yl)-6-isopropyl-5-p-tolylnicotinonitrile]

Same assay, conditions: enzyme assay of Example 12; read-out: IDH1R132H IC50

IC50 [nM]	SMILES
500 to 1000	COCCC(=O)N1CCN(c2nc(C3CC3)c(OC(C)c3cccc(Cl)c3)cc2C#N)C[C@H]1C (stereo partly drawn) [Compound 310, 5-(1-(3-chlorophenyl)ethoxy)-6-cyclopropyl-2-((R)-4-(3-methoxypropanoyl)-3-methylpiperazin-1-yl)nicotinonitrile]
< 500	CN(C)c1nccc(-c2cc(C#N)c(N3CCN(C(=O)CC(F)(F)F)[C@H](C4CC4)C3)nc2C2CC2)n1 [Compound 521, (R)-6-cyclopropyl-2-(3-cyclopropyl-4-(3,3,3-trifluoropropanoyl)piperazin-1-yl)-5-(2-(dimethylamino)pyrimidin-4-yl)nicotinonitrile]
500 to 1000	COCCC(=O)N1CCN(c2nc(C3CC3)c(OCc3ccc(OC)cc3)cc2C#N)C[C@H]1C [Compound 281, (R)-6-cyclopropyl-5-(4-methoxybenzyloxy)-2-(4-(3-methoxypropanoyl)-3-methylpiperazin-1-yl)nicotinonitrile]
500 to 1000	CNC(=O)c1cccc(-c2c(C3CC3)nc(N3CCN(C(=O)CCOC)[C@H](C)C3)c(C#N)c2C)c1 [Compound 327, (R)-3-{5-cyano-2-cyclopropyl-6-[4-(3-methoxy-propionyl)-3-methyl-piperazin-1-yl]-4-methyl-pyridin-3-yl}-N-methyl-benzamide]
500 to 1000	CCO[C@H]1C[C@@H]1C(=O)N1CCN(c2nc(C3CC3)c(-c3ccc(F)cc3)cc2C#N)C[C@H]1C1CC1 [Compound 548, 6-cyclopropyl-2-((R)-3-cyclopropyl-4-((1S,2S)-2-ethoxycyclopropanecarbonyl)piperazin-1-yl)-5-(4-fluorophenyl)nicotinonitrile]
< 500	N#Cc1cc(-c2cnc3cnccn23)c(C2CC2)nc1N1CCN(C(=O)C2CC2)[C@H](C2CC2)C1 [Compound 503, (R)-2-(4-(cyclopropanecarbonyl)-3-cyclopropylpiperazin-1-yl)-6-cyclopropyl-5-(imidazo[1,2-a]pyrazin-3-yl)nicotinonitrile]
< 500	COCCC(=O)N1CCN(c2nc(C3CC3)c(N3CCN(CC4CC4)CC3)cc2C#N)C[C@H]1C [Compound 378, (R)-6-cyclopropyl-5-(4-(cyclopropylmethyl)piperazin-1-yl)-2-(4-(3-methoxypropanoyl)-3-methylpiperazin-1-yl)nicotinonitrile]
500 to 1000	C=CC(=O)N1CC=C(c2cc(C#N)c(N3CCN(C(=O)C4CC4)[C@H](C)C3)nc2C2CC2)CC1 [Compound 630, (R)-5-(1-acryloyl-1,2,3,6-tetrahydropyridin-4-yl)-2-(4-(cyclopropanecarbonyl)-3-methylpiperazin-1-yl)-6-cyclopropylnicotinonitrile]
500 to 1000	COCCC(=O)N1CCN(c2nc(C3CC3)c(-c3ccnn3C)cc2C#N)C[C@H]1C [Compound 371, (R)-6-cyclopropyl-2-[4-(3-methoxy-propionyl)-3-methyl-piperazin-1-yl]-5-(2-methyl-2H-pyrazol-3-yl)-nicotinonitrile]
500 to 1000	COCCC(=O)N1CCN(c2nc(C3CC3)c(-c3ccc(N)nc3)cc2C#N)C[C@H]1C [Compound 314, (R)-6′-amino-2-cyclopropyl-6-(4-(3-methoxypropanoyl)-3-methylpiperazin-1-yl)-3,3′-bipyridine-5-carbonitrile]
500 to 1000	COCCC(=O)N1CCN(c2nc(C3CC3)c(-c3cccc(S(C)(=O)=O)c3)c(C)c2C#N)C[C@H]1C [Compound 329, (R)-6-cyclopropyl-5-(3-methanesulfonyl-phenyl)-2-[4-(3-methoxy-propionyl)-3-methyl-piperazin-1-yl]-4-methyl-nicotinonitrile]
< 500	N#Cc1cc(-c2ccc3ncsc3c2)c(C2CC2)nc1N1CCN(C(=O)C2CC2)[C@H](C2CC2)C1 [Compound 487, (R)-5-(benzo[d]thiazol-6-yl)-2-(4-(cyclopropanecarbonyl)-3-cyclopropylpiperazin-1-yl)-6-cyclopropylnicotinonitrile]
< 500	N#Cc1cc(Oc2cc(Cl)ccn2)c(C2CC2)nc1N1CCN(C(=O)CCO)[C@H](C2CC2)C1 [Compound 734, (R)-5-((4-chloropyridin-2-yl)oxy)-6-cyclopropyl-2-(3-cyclopropyl-4-(3-hydroxypropanoyl)piperazin-1-yl)nicotinonitrile]
< 500	Cc1nccc2c(-c3cc(C#N)c(N4CCN(C(=O)C5CC5)[C@H](C5CC5)C4)nc3C3CC3)cccc12 [Compound 497, (R)-2-(4-(cyclopropanecarbonyl)-3-cyclopropylpiperazin-1-yl)-6-cyclopropyl-5-(1-methylisoquinolin-5-yl)nicotinonitrile]
